Laboratory results taken from the OligoGym collection.
Several values for one entry are separate records, joined by “and”; a condition that tells them apart may be missing. Equal values may be shown once. HELM strings list units from the 5' end as sugar, base in round brackets, then linkage (d deoxyribose, r ribose, m 2'-O-methyl, p phosphodiester). Strings are as the collection lists them; they lack the last nucleoside at the 3' end of the tested compound. [moe] = 2'-O-(2-methoxyethyl) (MOE); [sp] = phosphorothioate linkage; [m5C] = 5-methylcytosine

The substances below were run against SMN2 (assay: mouse, dose not given). Conditions: ASO.
“RNA1{[moe]([m5C])[sp].[moe](A)[sp].[moe]([m5C])[sp].[moe](T)[sp].[moe](T)[sp].[moe](T)[sp].[moe]([m5C])p.[moe](A)p.[moe](T)p.[moe](A)p.[moe](A)p.[moe](T)p.[moe](G)[sp].[moe]([m5C])[sp].[moe](T)[sp].[moe](G)[sp].[moe](G)}$$$$ (last 3' nucleoside missing)” was tested, and the 3 h FOB score was 0 score 0-7. “RNA1{[moe](T)[sp].[moe](T)p.[moe]([m5C])[sp].[moe](A)[sp].[moe]([m5C])[sp].[moe](T)[sp].[moe](T)[sp].[moe](T)[sp].[moe]([m5C])[sp].[moe](A)[sp].[moe](T)[sp].[moe](A)[sp].[moe](A)[sp].[moe](T)[sp].[moe](G)[sp].[moe]([m5C])[sp].[moe](T)[sp].[moe](G)}$$$$ (last 3' nucleoside missing)” gave a 3 h FOB score of 3 score 0-7. “RNA1{[moe]([m5C])[sp].[moe](A)[sp].[moe]([m5C])[sp].[moe](T)[sp].[moe](T)[sp].[moe](T)[sp].[moe]([m5C])[sp].[moe](A)[sp].[moe](T)[sp].[moe](A)[sp].[moe](A)p.[moe](T)[sp].[moe](G)[sp].[moe]([m5C])[sp].[moe](T)p.[moe](G)[sp].[moe](G)}$$$$ (last 3' nucleoside missing)” showed a 3 h FOB score of 0 score 0-7. “RNA1{[moe](A)[sp].[moe](T)[sp].[moe](T)[sp].[moe]([m5C])[sp].[moe](A)[sp].[moe]([m5C])[sp].[moe](T)[sp].[moe](T)[sp].[moe](T)[sp].[moe]([m5C])p.[moe](A)[sp].[moe](T)[sp].[moe](A)[sp].[moe](A)[sp].[moe](T)[sp].[moe](G)[sp].[moe]([m5C])p.[moe](T)[sp].[moe](G)}$$$$ (last 3' nucleoside missing)” showed a 3 h FOB score of 2.75 score 0-7. “RNA1{[moe](T)[sp].[moe]([m5C])p.[moe](A)p.[moe]([m5C])[sp].[moe](T)[sp].[moe](T)[sp].[moe](T)[sp].[moe]([m5C])[sp].[moe](A)[sp].[moe](T)[sp].[moe](A)[sp].[moe](A)[sp].[moe](T)[sp].[moe](G)[sp].[moe]([m5C])[sp].[moe](T)[sp].[moe](G)}$$$$ (last 3' nucleoside missing)” gave a 3 h FOB score of 4.75 score 0-7. Work on “RNA1{[moe](A)[sp].[moe]([m5C])[sp].[moe](T)[sp].[moe](T)[sp].[moe](T)[sp].[moe]([m5C])[sp].[moe](A)[sp].[moe](T)p.[moe](A)p.[moe](A)p.[moe](T)[sp].[moe](G)[sp].[moe]([m5C])[sp].[moe](T)[sp].[moe](G)[sp].[moe](G)}$$$$ (last 3' nucleoside missing)” yielded a 3 h FOB score of 1 score 0-7. “RNA1{[moe](T)[sp].[moe]([m5C])[sp].[moe](A)[sp].[moe]([m5C])[sp].[moe](T)[sp].[moe](T)[sp].[moe](T)[sp].[moe]([m5C])[sp].[moe](A)[sp].[moe](T)p.[moe](A)[sp].[moe](A)[sp].[moe](T)[sp].[moe](G)p.[moe]([m5C])[sp].[moe](T)[sp].[moe](G)}$$$$ (last 3' nucleoside missing)” gave a 3 h FOB score of 3.5 score 0-7. “RNA1{[moe](A)[sp].[moe]([m5C])[sp].[moe](T)p.[moe](T)[sp].[moe](T)[sp].[moe]([m5C])[sp].[moe](A)[sp].[moe](T)[sp].[moe](A)p.[moe](A)[sp].[moe](T)[sp].[moe](G)[sp].[moe]([m5C])[sp].[moe](T)p.[moe](G)[sp].[moe](G)}$$$$ (last 3' nucleoside missing)” showed a 3 h FOB score of 0 score 0-7. Work on “RNA1{[moe](T)[sp].[moe]([m5C])[sp].[moe](A)[sp].[moe]([m5C])[sp].[moe](T)[sp].[moe](T)[sp].[moe](T)[sp].[moe]([m5C])[sp].[moe](A)[sp].[moe](T)[sp].[moe](A)[sp].[moe](A)[sp].[moe](T)p.[moe](G)[sp].[moe]([m5C])p.[moe](T)[sp].[moe](G)}$$$$ (last 3' nucleoside missing)” yielded a 3 h FOB score of 3 score 0-7. In the case of “RNA1{[moe](T)[sp].[moe]([m5C])[sp].[moe](A)[sp].[moe]([m5C])[sp].[moe](T)[sp].[moe](T)[sp].[moe](T)[sp].[moe]([m5C])[sp].[moe](A)[sp].[moe](T)[sp].[moe](A)[sp].[moe](A)[sp].[moe](T)[sp].[moe](G)[sp].[moe]([m5C])[sp].[moe](T)[sp].[moe](G)[sp].[moe](G)p.d([m5C])}$$$$ (last 3' nucleoside missing)”, the 3 h FOB score is reported as 4 score 0-7 (2×) and 3.75 score 0-7 (2×) and 3.5 score 0-7. “RNA1{[moe]([m5C])[sp].[moe](A)p.[moe]([m5C])p.[moe](T)[sp].[moe](T)[sp].[moe](T)[sp].[moe]([m5C])[sp].[moe](A)[sp].[moe](T)[sp].[moe](A)[sp].[moe](A)[sp].[moe](T)[sp].[moe](G)[sp].[moe]([m5C])[sp].[moe](T)[sp].[moe](G)[sp].[moe](G)}$$$$ (last 3' nucleoside missing)” gave a 3 h FOB score of 0 score 0-7. “RNA1{[moe](A)[sp].[moe](T)p.[moe](T)[sp].[moe]([m5C])[sp].[moe](A)[sp].[moe]([m5C])[sp].[moe](T)[sp].[moe](T)[sp].[moe](T)[sp].[moe]([m5C])[sp].[moe](A)[sp].[moe](T)[sp].[moe](A)[sp].[moe](A)[sp].[moe](T)[sp].[moe](G)[sp].[moe]([m5C])[sp].[moe](T)[sp].[moe](G)}$$$$ (last 3' nucleoside missing)” was tested, and the 3 h FOB score was 4 score 0-7. With “RNA1{[moe](T)[sp].[moe](T)[sp].[moe]([m5C])[sp].[moe](A)[sp].[moe]([m5C])[sp].[moe](T)[sp].[moe](T)[sp].[moe](T)[sp].[moe]([m5C])[sp].[moe](A)[sp].[moe](T)[sp].[moe](A)[sp].[moe](A)[sp].[moe](T)[sp].[moe](G)[sp].[moe]([m5C])[sp].[moe](T)[sp].[moe](G)}$$$$ (last 3' nucleoside missing)” the 3 h FOB score was 3.75 score 0-7. Substance “RNA1{[moe](A)[sp].[moe]([m5C])[sp].[moe](T)p.[moe](T)[sp].[moe](T)[sp].[moe]([m5C])p.[moe](A)[sp].[moe](T)[sp].[moe](A)p.[moe](A)[sp].[moe](T)[sp].[moe](G)p.[moe]([m5C])[sp].[moe](T)p.[moe](G)[sp].[moe](G)}$$$$ (last 3' nucleoside missing)” has a 3 h FOB score of 0 score 0-7. With “RNA1{[moe](T)[sp].[moe]([m5C])[sp].[moe](A)[sp].[moe]([m5C])[sp].[moe](T)[sp].[moe](T)[sp].[moe](T)[sp].[moe]([m5C])[sp].[moe](A)[sp].[moe](T)p.[moe](A)[sp].[moe](A)[sp].[moe](T)[sp].[moe](G)[sp].[moe]([m5C])[sp].[moe](T)[sp].[moe](G)}$$$$ (last 3' nucleoside missing)” the 3 h FOB score was 3 score 0-7. Substance “RNA1{[moe]([m5C])[sp].[moe](A)[sp].[moe]([m5C])[sp].[moe](T)[sp].[moe](T)[sp].[moe](T)[sp].[moe]([m5C])p.[moe](A)[sp].[moe](T)[sp].[moe](A)[sp].[moe](A)[sp].[moe](T)[sp].[moe](G)[sp].[moe]([m5C])[sp].[moe](T)[sp].[moe](G)[sp].[moe](G)}$$$$ (last 3' nucleoside missing)” has a 3 h FOB score of 0 score 0-7. “RNA1{[moe]([m5C])[sp].[moe](A)[sp].[moe]([m5C])p.[moe](T)[sp].[moe](T)[sp].[moe](T)[sp].[moe]([m5C])[sp].[moe](A)[sp].[moe](T)[sp].[moe](A)[sp].[moe](A)[sp].[moe](T)[sp].[moe](G)[sp].[moe]([m5C])[sp].[moe](T)[sp].[moe](G)[sp].[moe](G)}$$$$ (last 3' nucleoside missing)” gave a 3 h FOB score of 1 score 0-7. “RNA1{[moe](A)[sp].[moe]([m5C])[sp].[moe](T)p.[moe](T)[sp].[moe](T)p.[moe]([m5C])[sp].[moe](A)p.[moe](T)[sp].[moe](A)p.[moe](A)[sp].[moe](T)p.[moe](G)[sp].[moe]([m5C])p.[moe](T)[sp].[moe](G)[sp].[moe](G)}$$$$ (last 3' nucleoside missing)” gave a 3 h FOB score of 0 score 0-7. In the case of “RNA1{[moe]([m5C])[sp].[moe](A)[sp].[moe]([m5C])[sp].[moe](T)[sp].[moe](T)[sp].[moe](T)[sp].[moe]([m5C])[sp].[moe](A)p.[moe](T)p.[moe](A)p.[moe](A)[sp].[moe](T)[sp].[moe](G)[sp].[moe]([m5C])[sp].[moe](T)[sp].[moe](G)[sp].[moe](G)}$$$$ (last 3' nucleoside missing)”, the 3 h FOB score is reported as 1 score 0-7. Substance “RNA1{[moe](A)[sp].[moe](T)[sp].[moe](T)[sp].[moe]([m5C])[sp].[moe](A)[sp].[moe]([m5C])[sp].[moe](T)[sp].[moe](T)[sp].[moe](T)p.[moe]([m5C])p.[moe](A)[sp].[moe](T)[sp].[moe](A)[sp].[moe](A)[sp].[moe](T)[sp].[moe](G)[sp].[moe]([m5C])[sp].[moe](T)[sp].[moe](G)}$$$$ (last 3' nucleoside missing)” has a 3 h FOB score of 4 score 0-7. “RNA1{[moe]([m5C])[sp].[moe](T)[sp].[moe](T)p.[moe](T)[sp].[moe]([m5C])p.[moe](A)[sp].[moe](T)p.[moe](A)[sp].[moe](A)p.[moe](T)[sp].[moe](G)p.[moe]([m5C])[sp].[moe](T)p.[moe](G)[sp].[moe](G)}$$$$ (last 3' nucleoside missing)” gave a 3 h FOB score of 0.25 score 0-7. For “RNA1{[moe]([m5C])[sp].[moe](A)p.[moe]([m5C])[sp].[moe](T)[sp].[moe](T)[sp].[moe](T)[sp].[moe]([m5C])[sp].[moe](A)[sp].[moe](T)[sp].[moe](A)[sp].[moe](A)[sp].[moe](T)[sp].[moe](G)[sp].[moe]([m5C])[sp].[moe](T)p.[moe](G)[sp].[moe](G)}$$$$ (last 3' nucleoside missing)”, the 3 h FOB score was 0 score 0-7. “RNA1{[moe](A)[sp].[moe]([m5C])[sp].[moe](T)[sp].[moe](T)[sp].[moe](T)[sp].[moe]([m5C])[sp].[moe](A)p.[moe](T)p.[moe](A)p.[moe](A)p.[moe](T)[sp].[moe](G)[sp].[moe]([m5C])[sp].[moe](T)[sp].[moe](G)[sp].[moe](G)}$$$$ (last 3' nucleoside missing)” gave a 3 h FOB score of 0.25 score 0-7. In the case of “RNA1{[moe]([m5C])[sp].[moe](A)p.[moe]([m5C])[sp].[moe](T)p.[moe](T)[sp].[moe](T)[sp].[moe]([m5C])[sp].[moe](A)[sp].[moe](T)[sp].[moe](A)[sp].[moe](A)[sp].[moe](T)[sp].[moe](G)[sp].[moe]([m5C])[sp].[moe](T)[sp].[moe](G)[sp].[moe](G)}$$$$ (last 3' nucleoside missing)”, the 3 h FOB score is reported as 0 score 0-7.
